Assay [1] concerns SN12C-shVHL RNAi and ACHN-shVHL RNAi xenograft tumors. Briefly: Subcutaneous xenograft tumor growth, VHL knockdown tumors. The assay is classed as in vivo, SCID mice. To be noted: 0.1 mg/kg CCI-779 daily. How it is done: FIGS. 1A-1E. Effects of VHL knockdown on sensitivity to CCI-779. (a) Immunoblotting of lysates derived from shRNA and control (empty vector, V) in SN12C, using antibodies against VHL (both isoforms detected), HIF-1α, HIF-2α, GLUT-1, CA-IX and β-Actin (as a loading control). (b) SN12C-CSCG and SN12C-VHLshRNA cells (1×10^5) were cultured in 10% serum rich media, in the presence of vehicle, 1 or 10 nM of CCI-779 for 5 days. Cell growth was measured by cell counts (n=3). […] (c) SN12C-CSCG (C1) and SN12C-CSCG shVHL RNA (C2) cells were injected into SCID mice at a dose of 1×10^6 cells per mouse (n=30). […] Phosphorylated-S6 protein in SN12C-CSCG and SN12C-VHL shRNA xenograft tumors treated with vehicle or 0.1 mg/kg of CCI-779 was measured by immunoblot C3 and C4). […]
For in vitro experiments, cells (5×10^4) were plated and treated with 1 and 10 nM CCI-779 (kind gift of J. Gibbons, Wyeth) or vehicle (ethanol). On day 5-post treatment, cells were trypsinized, resuspended in DMEM with 10% FBS and counted using the VI CELL counter (Beckman Coulter), according to the manufacturer's instructions. […] In vivo tumorigenicity was measured by injection of 5×10^5 SN12C-CSCG, ACHN-CSCG, SN12C-CSCG-VHLshRNAi, ACHN-CSCG-VHLshRNAi, SN12C-CSCG-VHLshRNAi-pBABE, SN12C-CSCG-VHLshRNAi-pBABE-HA-HIF-2α (P405A; P531A) cells in 100 μl of Matrigel (Collaborative Biomedical) subcutaneously into the flanks of SCID mice. […]

In the next assay the test system is SN12C-VHL shRNA cells. Briefly: In vitro growth (cell counts), VHL knockdown cells. It is filed as cell-based, human. How it is done:
(§1) FIGS. 1A-1E. Effects of VHL knockdown on sensitivity to CCI-779. (a) Immunoblotting of lysates derived from shRNA and control (empty vector, V) in SN12C, using antibodies against VHL (both isoforms detected), HIF-1α, HIF-2α, GLUT-1, CA-IX and β-Actin (as a loading control). (b) SN12C-CSCG and SN12C-VHLshRNA cells (1×10^5) were cultured in 10% serum rich media, in the presence of vehicle, 1 or 10 nM of CCI-779 for 5 days. Cell growth was measured by cell counts (n=3). […] (c) SN12C-CSCG (C1) and SN12C-CSCG shVHL RNA (C2) cells were injected into SCID mice at a dose of 1×10^6 cells per mouse (n=30). When tumor volume reached 150 mm^3, mice were randomized to daily treatment with vehicle or 0.1 mg/kg of CCI-779. The change in tumor volume is plotted. Phosphorylated-S6 protein in SN12C-CSCG and SN12C-VHL shRNA xenograft tumors treated with vehicle or 0.1 mg/kg of CCI-779 was measured by immunoblot C3 and C4). Equal loading verified by actin immunoblots. […] (e) Schematic of shRNA-expressing lentivirus directed against VHL in pCSCG vector.
(§2) For in vitro experiments, cells (5×10^4) were plated and treated with 1 and 10 nM CCI-779 (kind gift of J. Gibbons, Wyeth) or vehicle (ethanol). On day 5-post treatment, cells were trypsinized, resuspended in DMEM with 10% FBS and counted using the VI CELL counter (Beckman Coulter), according to the manufacturer's instructions. Cell counts were done in triplicate and repeated on at least 3 independent occasions. In vivo tumorigenicity was measured by injection of 5×10^5 SN12C-CSCG, ACHN-CSCG, SN12C-CSCG-VHLshRNAi, ACHN-CSCG-VHLshRNAi, SN12C-CSCG-VHLshRNAi-pBABE, SN12C-CSCG-VHLshRNAi-pBABE-HA-HIF-2α (P405A; P531A) cells in 100 μl of Matrigel (Collaborative Biomedical) subcutaneously into the flanks of SCID mice. Tumor size were measured weekly in three dimensions using calipers as described (Klein, K. A. et al. Nat Med 3, 402-8 (1997)). When tumors reached 200 mm^3, all tumors received 0.1 mg/kg/daily of CCI-779 or vehicle. All mouse experiments were performed in compliance with the guidelines of the Animal Research Committee of the University of California at Los Angeles.
(§3) SN12C and ACHN (NCI60, DTP) were maintained in Dulbecco's modified Eagle's Medium (DMEM) supplemented with 10% FBS. […] On day 5-post treatment, cells were trypsinized, resuspended in DMEM with 10% FBS and counted using the VI-Cell XR automated cell viability analyzer (Beckmann Coulter). […] In vivo tumorigenicity was measured by injection of 5×10^5 SN12C-CSCG, ACHN-CSCG, SN12C-CSCG-VHL shRNA, ACHN-CSCG-VHL shRNA, SN12C-CSCG-VHL shRNA-pBABE, SN12C-CSCG-VHL shRNA-pBABE-HA-HIF-2α (P405A; P531A) cells in 100 μl of Matrigel (Collaborative Biomedical) subcutaneously into the flanks of SCID mice. Tumor size were measured weekly in three dimensions using calipers as described. […]

For a further assay, the system named is ACHN-VHL shRNA cells. In words: In vitro growth (cell counts), VHL knockdown cells. The assay is classed as cell-based, human. The protocol: as §1, §2, §3
The mark [2] stands for this setting: dose-dependent, 1 and 10 nM CCI-779, day 5.

For `CO[C@H]1C[C@@H]2CC[C@@H](C)[C@@](O)(O2)C(=O)C(=O)N2CCCC[C@H]2C(=O)O[C@H]([C@H](C)C[C@@H]2CC[C@@H](OC(=O)C(C)(CO)CO)[C@H](OC)C2)CC(=O)[C@H](C)/C=C(\C)[C@@H](O)[C@@H](OC)C(=O)[C@H](C)C[C@H](C)/C=C/C=C/C=C/1C` [CCI-779], in assay [1], the “growth of the VHL shRNAi tumors” value is recorded as “completely blocked the growth”. The “sensitivity to CCI-779 in contrast to the parental cells” value in the assay on SN12C-VHL shRNA cells (1 and 10 nM, in vitro) is on record as “increased sensitivity”. The “reduction of cell growth” value with SN12C-VHL shRNA cells (setting [2]) and in the assay on ACHN-VHL shRNA cells (setting [2]) was 70% in each case. In addition, the “sensitivity to CCI-779 after stable VHL knockdown” value with ACHN-VHL shRNA cells (FIG. 1D) is on record as “enhanced sensitivity”.
